Test results as given in patent US12083084B2, “Method for enhancing energy production and metabolism in cells” (REPLICON HEALTH OY, priority 2013, dated 2024).

What was measured:
[1] = 400 m running experiment; type: in vivo, human
Protocol: Two healthy male volunteers S1 and S3 from Example 2.1 participated in 400 m running experiment with 4 day administration of DGAcs and without it. The experiments were done at 2-3 pm in the afternoon. In DGA experiment additional dose of DGAcs (5 mg/kg) was taken before lunch at 11 am, and lunch was eaten at 12 am. […] The length of the 400 m exercise at full speed was too much especially for S1. […] This difference was striking especially for S3 and can be as a result in decreased acidosis.

[2] = tested on: ethanol-dosed gastric cells; conditions: in vitro; cited from earlier work
[3] = cited from earlier work
[4] = Glucose tolerance test, plasma glucose and insulin; type: in vivo, human; conditions: 4.5 day experiment
Protocol: In the 4.5 day experiment also standard, fasting glucose tolerance test was conducted for S1 and S9 starting after 2.5 hours of last administration of DGAcs. Blood glucose levels were measured at 0 h, 60 min and 120 minutes.

[5] = 3 week ad libitum feeding study, food intake and body weight; type: in vivo, rat
Protocol: In this in vivo experiment 45 rats (24 males and 21 females) were tested in Finnish National Institute of Health. Used DGAcs doses were high compared to human trials ranging between 100-1000 mg/kg/day, but on the other hand the metabolism of rats is much faster than in humans and thus the effective doses for rats can be clearly higher than for humans. In some experiments even 20-50 times higher compared to humans in vivo have been reported in literature. Thus this experiment can give indication also for human use. The animals were kept under controlled conditions, with the temperature set from 20° C. to 21° C., the humidity at 47.6%, and a 12-hour light-dark cycle (lights on at 6:00 am). In this ad libitum feeding study the DGAcs was mixed in the diet for the whole experimental period (3 weeks). The animals were divided into 4 groups, which received 0 (zero control), 2, 10, and 20 g glycerate per kilogram of diet. The average DGAcs consumption was 0.1, 0.5, and 1.0 g/kg per day, respectively, as calculated based on weekly food consumption. The animals experimented were 3 to 5 months old AA rats. The animals were given water and a standard laboratory feed (SDS RM1) ad libitum for 3 weeks. In the experiment the development of weights of rats receiving DGAcs, and the control were measured, as well as the food consumption during the experiment and change in the body weight. Males and females were separated resulting altogether to 8 groups with 5-6 animals in each.

[6] = tested on: peripheral leukocytes; test: Gene expression from in vivo blood samples (TRAC); parameters: species or system human; conditions: for AOX1 gene expression, Change % / CYP1A2 gene expression, Change % / CYP2B6 gene expression, Change % / CYP2C9 gene expression, Change % / CYP3A4 gene expression, Change % / G6PD gene expression, Change % / GPD2 gene expression, Change % / GRHPR gene expression, Change % / HO-1 gene expression, Change % / MT-CO1 gene expression, Change % / MT-CYB gene expression, Change % / PGC-1a gene expression, Change %: S1 and S9 combined, vs control
Protocol: In the above 4.5 day experiment samples of peripheral leukocytes were collected from S1 and S9 in fasting condition (0 h), and also 1 hour (1 h) after taking 75 grams of glucose (Glutole, Biofile Pharma, 330 ml) for glucose tolerance test. Additional gene expression measurement was done from a separate 12 hour treatment for S1 and S9. In the 12 h test only two last doses of DGAcs were administered, first dose 12 h earlier than the blood sample, and the last/second dose 2.5 h earlier in the same morning (like in 4.5 day experiment). For the statin group, S10 and S11, only one gene expression measurement was done in two hours after the fasting blood sample. Leukocytes were immediately separated from blood samples, and after separation immediately lysed by stop solution and stored in freezer according to instructions by the service provider.
For S1 and S9 there were altogether 4 measurement points for gene expression, and only 3 repeats for each measurement. Results are presented in Table 6 below; changes of gene expressions compared to the control from peripheral leukocytes are presented. The Gene Expression analyses was conducted using TracTechnology by PlexPress Ltd in Helsinki. The TRAC data presented in Table 6 has been generated according to process instructions with quality tested instruments and reagents. PlexPress Quality Management System is set up according to the ISO 9001 standard. P-values are from t-distribution of a one sided test of deviation from control average, and are presented only when below 10%.

[7] = 12 hour + 0 h test (two doses, fasting)
[8] = 12 hour + 1 h test (1 h after 75 g glucose)
[9] = 4.5 day + 1 h test (1 h after 75 g glucose)

## O=C(O)[C@H](O)CO [DGA, D-glyceric acid]
[1]; S1 and S3, qualitative
  readiness to resume other physical exercise after 400 m run: much more ready to resume other physical exercise
[1]; S3, 4 day administration + 5 mg/kg before lunch
  400 m running times, control vs DGA: no significant differences
[2]
  viability of ethanol-dosed gastric cells: increase viability
[3]
  solubility: readily soluble in water and alcohol

## O.O.O=C([O-])[C@H](O)CO.O=C([O-])[C@H](O)CO.[Ca+2] [DGAcs, D-glyceric acid, calcium salt dehydrate]
[4]; S1 (starting level 5.0 mmol/L), 75 g glucose
  drop of blood glucose at 120 min: marginal
[4]; S9 (fasting blood glucose 6.0 mmol/L), 75 g glucose
  blood glucose lower at 120 min compared to the control: ~0.6 mmol/L
[4]; S9, 75 g glucose
  blood insulin level at 60 minutes: higher insulin level
[5]; DGAcs groups, males and females
  increase in food intake: 2.5-4%
[5]; female rats, 3 weeks
  average weight change compared to control: +0.2%
  average weight increasing compared to control: 0.6 grams
[5]; female rats, DGAcs groups combined, 3 weeks
  food intake higher compared to the control: 2.5%
[5]; male rats, DGAcs groups combined (0.1, 0.5, 1.0 g/kg per day), 3 weeks
  food intake higher compared to the control: 3.7%
[5]; males
  amount of unexplained energy consumption: roughly 5%
[6]; [7]
  AOX1 gene expression, Change %: −6%
  CYP1A2 gene expression, Change %: 100%
  CYP2B6 gene expression, Change %: −14%
  CYP2C9 gene expression, Change %: 8%
  CYP3A4 gene expression, Change %: −17%
  G6PD gene expression, Change %: 3%
  GPD2 gene expression, Change %: 24%
  GRHPR gene expression, Change %: −26%
  HO-1 gene expression, Change %: −31%
  MT-CO1 gene expression, Change %: −10%
  MT-CYB gene expression, Change %: −2%
  PGC-1a gene expression, Change %: −3%
[6]; [8]
  AOX1 gene expression, Change %: 8%
  CYP2B6 gene expression, Change %: 8%
  CYP2C9 gene expression, Change %: 18%
  CYP3A4 gene expression, Change %: −45%
  G6PD gene expression, Change %: 18%
  GPD2 gene expression, Change %: 23%
  GRHPR gene expression, Change %: 6%
  HO-1 gene expression, Change %: −54%
  MT-CO1 gene expression, Change %: 4%
  MT-CYB gene expression, Change %: 2%
  PGC-1a gene expression, Change %: −21%
[6]; 4.5 day + 0 h test (fasting)
  CYP1A2 gene expression, Change %: 62%
  CYP2B6 gene expression, Change %: 73%
  CYP2C9 gene expression, Change %: 0%
  CYP3A4 gene expression, Change %: 67%
  G6PD gene expression, Change %: 9%
  GPD2 gene expression, Change %: 31%
  GRHPR gene expression, Change %: 70%
  HO-1 gene expression, Change %: 82%
  MT-CO1 gene expression, Change %: 24%
  MT-CYB gene expression, Change %: 22%
[6]; [9]
  CYP1A2 gene expression, Change %: 14%
  CYP2B6 gene expression, Change %: 147%
  CYP2C9 gene expression, Change %: 46%
  CYP3A4 gene expression, Change %: 69%
  G6PD gene expression, Change %: −13%
  GPD2 gene expression, Change %: 0%
  GRHPR gene expression, Change %: 100%
  HO-1 gene expression, Change %: 110%
  MT-CO1 gene expression, Change %: 23%
  MT-CYB gene expression, Change %: 21%
  PGC-1a gene expression, Change %: 30%
[6]; S10, statin group
  CYP3A4 gene expression vs control: statistically significantly up regulated
[6]; S10, statin group (halved dose of Simvastatin), 4.5 day
  increase in HO-1 gene expression: 160%
[6]; S10, statin group, 4.5 day panel
  AOX1 gene expression increased by: 56%
